Test results from patent US20170143674A1, “Use of Glutaryl Histamine for the Treatment of Respiratory Tract Diseases” (LTD "VALENTA-INTELLEKT", priority 2011, published 2017).
Where two headings read alike, the source gives them in different places. Marks after values point to notes of the source that are not given here.

Columns and labels:
[1] = test system: acute rhinosinusitis induced by intranasal administration of formalin; format: in vivo, rat
Method: Activity of glutaryl histamine was studied in an experimental model of acute rhinosinusitis (ARS).
Administration of 20 μl of 7.5% formalin to the rat nasal passages leads to the development of a clinical picture similar to the symptoms of acute rhinosinusitis in a human.
The tested medicament and reference medicaments were administered for 7 days after administration of 7.5% formalin. Normal saline solution was used as placebo. The animals were subjected to euthanasia on day 8 after induction of experimental acute rhinosinusitis by method of air embolism. During necropsy, nasal passages of all animals were sampled. The obtained material was placed into 10% neutral-buffered formalin for further histological analysis.
The mucous and submucous membranes of both nasal passages (respiratory and olfactory regions) of the experimental animals were subjected to a morphological analysis of the specific activity of glutaryl histamine.
After the clinical phase of the experiment, the material derived from the animals was subjected to the standard treatment to prepare histological paraffin sections with a thickness of 3 to 5 μm. The sections were stained with hematoxylin and eosin for a microscopic study. Comparison and histological analysis of changes were performed versus the group of intact rats.
The main pathological processes inherent in experimental acute rhinosinusitis, such as vascular congestion in mucous membrane, hyperplasia and necrosis of the epithelium, the number of caliciform cells within 1 mm of the mucous membrane in the nasal septum, were evaluated by a semi-quantitative method to evaluate the degree of pathophysiological changes in histological, histochemical and morphological studies.
The microscopic analysis of exudative disorder developed in rats with acute rhinitis was aimed at measuring the number of caliciform cells comprising acidic mucus (Table 3).

LPS-induced tonsillitis = LPS-induced tonsillitis model (E. coli LPS into cervical lymph node); format: in vivo; settings: Diclofenac (11 mg/kg)
Method: This example is aimed at evaluating the activity of glutaryl histamine on experimental model of tonsillitis. LPS-induced tonsillitis is one of the most adequate models for the study of the pathogenesis, pathomorphological changes and action of pharmacological medicaments on the course of this disease.
Tonsillitis was induced under anesthesia by administration of a solution of E. coli lipopolysaccharide (LPS) (Sigma) in normal physiological solution in a dose of 20 μg/kg, by 10 μl to the right upper lymph node (Inn. Cervicales superficiales). After administration, the lymph nodes were put under superficial neck muscles and then the skin was stitched. The wound was treated with streptocide. The animal was placed into a post-operation cage.
The tested medicament was administered once daily in a given dose strictly at the stated time for three days before the induction of tonsillitis and 10 days after. Normal saline solution was used as placebo.
Immediately after euthanasia, the animals were subjected to necropsy, the affected and intact lymph nodes were removed and weighed.
The lymph nodes derived from the half of animals from each group were being frozen after removal in a refrigerating chamber at −25° C. for 72 hours. Then the lymph nodes were lyophilized.
In a half of animals from each group (7), the affected lymph nodes were subjected to histological analysis. After euthanasia, intact and affected lymph nodes were removed from each animal. […] Sections with a thickness of 4 to 6 μm were prepared from the paraffin blocks, stained with hematoxylin and eosin to reveal typical pathological processes and study required parameters using light-optical microscope Leica DM LS (magnification 200× and 400×).
Weights of intact and affected lymph nodes were compared and the nodes also were lyophilized to evaluate an effect of the medicaments on the swelling degree and adequacy of the model of tonsillitis.
The protein-synthetic function of the liver and a systemic effect of the medicaments on organism were evaluated in total protein (TP) analysis.

[2] = test system: Escherichia coli (mouse-adapted strain 4300); assay: animal or person; format: in vivo, mice
Method: Escherichia coli (mouse-adaptedstrain 4300, Institute collection) was used as an infectious agent. Mice were infected intravenously.
Firstly, there were determined a lethal dose (LD100) of Escherichia coli to be intravenously administered to this line of mice with a certain weight. Fatal cases among mice were registered every day for ten days. […] For this purpose, mice were housed into cages (10 animals per cage) and infected with a lethal dose of Escherichia coli. One hour after each mouse was administered orally levofloxacin in doses of 1, 2, 4, 6, 8, 10, and 12 mg/kg. A group of mice infected with a lethal dose of Escherichia coli without the treatment was considered as a control group. Fatal cases among mice were registered every day for ten days.
The next step of the experiment was to study an effect of combined administration of glutaryl histamine and levofloxacin on a model of E. coli sepsis in mice.
(§1) In the experiment, mice were housed in following groups (10 animals per cage):
Glutaryl histamine was administered orally in the corresponding doses to mice of groups 3, 4, 5, 6, 7, and 8 for 5 days. Five day after, all groups of mice were intravenously administered 0.2 ml of Escherichia coli in the lethal dose. […] After infection and administration of levofloxacin, glutaryl histamine was administered to mice of groups 3-8 for additional 5 days. During the experiment, the animals were observed every day, and fatal cases were registered (see Table 14).

[3] = test system: Staphylococcus aureus (mouse-adapted MRSA strain 5); assay: animal or person; format: in vivo, mice
Method: Tested medicament was glutaryl histamine in doses of 15, 30 and 45 mg/kg. Solutions of the tested medicament for oral administration were prepared ex tempore in stream water. Ampicillin (in intravenous administration) was used as a therapeutic preparation since it is the most experimentally studied antibiotic approved in clinical practice many years ago. Levofloxacin was used as a positive control (in oral administration).
Staphylococcus aureus was used as an infectious agent (mouse-adapted MRSA strain 5, collection from GU NIINA im.G.F. Gauze RAMN).
Firstly, there was determined a lethal dose (LD100) of staphylococcus when intravenously administered to this line of mice with a certain weight. Fatal cases among mice were registered every day for ten days. […] After that, there was determined the dose of ampicillin providing a survival rate of 20% of mice infected with staphylococcus MRSA taken in a lethal dose. For this purpose, mice were housed into cages by 10 animals and infected with a lethal dose of staphylococcus. One hour later, each mouse was intravenously administered ampicillin in doses of 30, 60, 90, 120, 150, and 180 mg/kg. A group of mice infected with a lethal dose of staphylococcus without the treatment was considered as a control group. Fatal cases among mice were registered every day for ten days.
The next step of the experiment was to study an effect of combined administration of glutaryl histamine with ampicilline on a model of MRSA-induced staphylococcal sepsis in mice.
In the experiment, the mice were housed in following groups of 10 animals per cage: […]

[4] = test system: Staphylococcus aureus (mouse-adapted strain 10); assay: animal or person; format: in vivo, mice
Method: The tested medicament was glutaryl histamine in doses of 15, 30 and 45 mg/kg. Solutions of the tested medicament for oral administration were prepared ex tempore. Levofloxacin (in oral administration) was used as a therapeutic preparation since this substance was the most experimentally studied antibiotic approved in clinical practice many years ago.
Staphylococcus aureus (mouse-adaptedstrain 10) was used as an infectious agent. Mice were infected intravenously.
Firstly, there was determined a lethal dose (LD100) of staphylococcus to be intravenously administered to this line of mice having a certain weight. Fatal cases among mice were registered every day for ten days. The lethal dose was 3×10^8 CFU/mouse. […] For this purpose, mice were housed into cages (10 animals per cage) and infected with a lethal dose of staphylococcus. One hour after each mouse was administered orally levofloxacin in doses of 1, 2, 4, 6, 8, 10, and 12 mg/kg. A group of mice infected with a lethal dose of staphylococcus without the treatment was considered as a control group. Fatal cases among mice were registered every day for ten days.
The next step of the experiment was to study an effect of combined administration of glutaryl histamine and levofloxacin on a model of staphylococcal sepsis in mice.
as §1
Glutaryl histamine was administered orally in the corresponding doses to the mice of groups 3, 4, 5, 6, 7, and 8 for 5 days. Five day after, all groups of mice were intravenously administered with 0.2 ml of Staphylococcus aureus in the lethal dose. […] After infection and administration of levofloxacin, glutaryl histamine was administered to mice of groups 3-8 for additional 5 days. During the experiment, the animals were observed every day, and fatal cases were registered (see Table 13).

[5] = Diclofenac 11 mg/kg, n = 10, listed as diclofenac
[6] = levofloxacin 20 mg/kg, tenth day
[7] = group 3: levofloxacin 4 mg/ml per os one time
[8] = levofloxacin 2.65 mg/kg, tenth day

Structure (SMILES): O=C(O)Cc1ccccc1Nc1c(Cl)cccc1Cl [Diclofenac, diclofenac, reference compound]
- Mucopurulent catarrh (number of rats) ([1]; Diclofenac 11 mg/kg, n = 10): 7
- Mucous catarrh (number of rats) ([1]; Diclofenac 11 mg/kg, n = 10): 3
- Without changes (number of rats, mucous membrane in the nasal passages, macroscopic) ([1]; Diclofenac 11 mg/kg, n = 10): 0
- Mucopurulent catarrh (number of rats) [1, 5]: four
- Mucous catarrh (number of rats) [1, 5]: three
- The number of caliciform cells within 1 mm of the mucosal membrane of the nasal septum ([1]; Diclofenac (11 mg/kg), M ± m): 31.8 ± 1.9* **
- Mortality rate (%) (LPS-induced tonsillitis): 29%
- The number of died animals/initial number of animals in a group (LPS-induced tonsillitis): 4/14
- Area of germinal centers of lymphoid follicles in affected lymph nodes (LPS-induced tonsillitis; M ± m): 0.074 ± 0.007* mm^2
- Weight difference between affected and intact lymph nodes (LPS-induced tonsillitis; M ± m): 16.3 ± 1.4 mg

Structure (SMILES): C[C@H]1COc2c(N3CCN(C)CC3)c(F)cc3c(=O)c(C(=O)O)cn1c23 [levofloxacin, reference compound]
- ED50 ([2]; Escherichia coli, po, read-out: ED50 (50% effective dose)): 2.97 mg/kg
- died/survived animals ([2]; day 1, levofloxacin 20 mg/kg): 0/10
- died/survived animals ([2]; day 2, levofloxacin 20 mg/kg): 0/10
- died/survived animals ([2]; day 3, levofloxacin 20 mg/kg): 0/10
- died/survived animals ([2]; day 4, levofloxacin 20 mg/kg): 1/9
- died/survived animals ([2]; day 5, levofloxacin 20 mg/kg): 2/8
- died/survived animals ([2]; day 6, levofloxacin 20 mg/kg): 3/7
- died/survived animals ([2]; day 7, levofloxacin 20 mg/kg): 4/6
- died/survived animals ([2]; day 8, levofloxacin 20 mg/kg): 5/5
- died/survived animals ([2]; day 9, levofloxacin 20 mg/kg): 5/5
- died/survived animals ([2]; day 10, levofloxacin 20 mg/kg): 5/5
- Mortality rate (%) [2, 6]: 50%
- Survival rate (%) [2, 6]: 50%
- ED50 ([3]; Staphylococcus aureus, MRSA, po): 4 mg/kg
- died/survived animals ([3]; day 1, group 3: levofloxacin 4 mg/ml per os one time): 0/10
- died/survived animals ([3]; day 2, group 3: levofloxacin 4 mg/ml per os one time): 0/10
- died/survived animals ([3]; day 3, group 3: levofloxacin 4 mg/ml per os one time): 0/10
- died/survived animals ([3]; day 4, group 3: levofloxacin 4 mg/ml per os one time): 1/9
- died/survived animals ([3]; day 5, group 3: levofloxacin 4 mg/ml per os one time): 2/8
- died/survived animals ([3]; day 6, group 3: levofloxacin 4 mg/ml per os one time): 3/7
- died/survived animals ([3]; day 7, group 3: levofloxacin 4 mg/ml per os one time): 4/6
- died/survived animals ([3]; day 8, group 3: levofloxacin 4 mg/ml per os one time): 5/5
- died/survived animals ([3]; day 9, group 3: levofloxacin 4 mg/ml per os one time): 5/5
- died/survived animals ([3]; day 10, group 3: levofloxacin 4 mg/ml per os one time): 5/5
- Mortality rate (%) [3, 7]: 50%
- Survival rate (%) [3, 7]: 50%
- ED50 ([4]; Staphylococcus aureus, po, read-out: ED50 (50% effective dose)): 2.65 mg/kg
- died/survived animals ([4]; day 1, levofloxacin 2.65 mg/kg): 0/10
- died/survived animals ([4]; day 2, levofloxacin 2.65 mg/kg): 0/10
- died/survived animals ([4]; day 3, levofloxacin 2.65 mg/kg): 1/9
- died/survived animals ([4]; day 4, levofloxacin 2.65 mg/kg): 2/8
- died/survived animals ([4]; day 5, levofloxacin 2.65 mg/kg): 4/6
- died/survived animals ([4]; day 6, levofloxacin 2.65 mg/kg): 4/6
- died/survived animals ([4]; day 7, levofloxacin 2.65 mg/kg): 4/6
- died/survived animals ([4]; day 8, levofloxacin 2.65 mg/kg): 5/5
- died/survived animals ([4]; day 9, levofloxacin 2.65 mg/kg): 5/5
- died/survived animals ([4]; day 10, levofloxacin 2.65 mg/kg): 5/5
- Mortality rate (%) [4, 8]: 50%
- Survival rate (%) [4, 8]: 50%
